21 compounds from patent US10676468B2, “N-(3-heteroarylaryl)-4-arylarylcarboxamides and analogs as hedgehog pathway inhibitors and use thereof” (IMPACT Therapeutics, Inc., priority 2012, dated 2020) can be followed below.

Assay type in all cases: cell-based, mouse
The test system of test [1] is Hedgehog Signaling Pathway. The experiment in a line: Gli-Luc reporter gene cell assay in C3H10T1/2/Gli-Luc cells stimulated with Shh. As to conditions: 30 nM Shh, luciferase activity (RLU), read-out: IC50 values of compounds that inhibit Hh pathway. Summed up:
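IC50 from nonlinear fit of luciferase RLU versus log compound concentration. Stably transfected C3H10T1/2/Gli-Luc cells received a 7-point compound series alongside Shh (30 nM in the added medium) for 24 h at 37 °C in DMEM/10% FBS, then were lysed for luciferase readout.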

Test [2] deals with Hedgehog Signaling Pathway. The test can be described thus: SHH-induced differentiation of C3H10T1/2 cells into osteoblastic cells, intracellular alkaline phosphatase activity. As to conditions: 10 nM SHH-N, 5 days, alkaline phosphatase activity (OD405), read-out: IC50 values of compounds that inhibit Hh pathway. Summed up:
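Hedgehog pathway inhibition was taken as loss of SHH-driven osteoblastic differentiation. Test compound (10 nM–10 μM) plus SHH-N (10 nM) was applied to C3H10T1/2 cells for 5 days, then lysate phosphatase turnover was measured as the 30-min OD405 change at 37 °C. IC50 was fitted from activity versus log dose.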

Test [3] has as its system Hedgehog Signaling Pathway. The experiment in a line: SAG-induced differentiation of C3H10T1/2 cells into osteoblastic cells, intracellular alkaline phosphatase activity. To be noted: 1 μM SAG, 5 days, alkaline phosphatase activity (OD405), read-out: IC50 values of compounds that inhibit Hh pathway. In outline: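 Mouse C3H10T1/2 cells were induced with SAG and exposed to compound (10 μM to 1 nM) for 5 days at 37 °C. Cells were lysed in 0.2% Triton, and alkaline phosphatase activity was read as OD405 over 30 min at 37 °C in pH 9.8 substrate buffer. IC50 came from a non-linear fit of background-subtracted OD405 against log concentration.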

[4] abbreviates: Mus musculus, C3H 10T1/2, 120 h.

The IC50 is the concentration at which inhibition is half-maximal.

On to `Cc1cc(-c2ccc(C(F)(F)F)cc2)ccc1C(=O)Nc1ccc(Cl)c(-c2ncc(-c3ccco3)[nH]2)c1` [Example 79, N-(3-(5-(furan-2-yl)-1H-imidazol-2-yl)-4-chlorophenyl)-3-methyl-4′-(trifluoromethyl)biphenyl-4-carboxamide], for which the IC50 in test [1] (Mus musculus, C3H 10T1/2, 24 h) came out at 6.6 nM; in test [2] (setting [4]), 2.7 nM; in test [3] (setting [4]), 100 nM.
The like results for `Cc1ccc(-c2cnc(-c3cc(NC(=O)c4ccc(N5C[C@@H](C)O[C@@H](C)C5)cc4C)ccc3Cl)[nH]2)cc1` [Example 80, N-(3-(5-p-tolyl-1H-imidazol-2-yl)-4-chlorophenyl)-2-methyl-4-((2S,6R)-2,6-dimethylmorpholino)benzamide] were, in that order, 1.8 nM, 2.7 nM and 28 nM.
The like results for `Cc1cc(N2C[C@@H](C)N(C)[C@@H](C)C2)ccc1C(=O)Nc1ccc(Cl)c(-c2ncc(-c3cccs3)[nH]2)c1` [Example 81, N-(3-(5-(thiophen-2-yl)-1H-imidazol-2-yl)-4-chlorophenyl)-2-methyl-4-((3S,5R)-3,4,5-trimethylpiperazin-1-yl)benzamide] were, in that order, 0.15 nM, 0.16 nM and 6.4 nM.
On the same counts, the results for `C[C@@H]1CN(c2ccc(C(=O)Nc3ccc(Cl)c(-c4ncc(-c5cccs5)[nH]4)c3)c(Cl)c2)C[C@H](C)N1C` [Example 82, N-(3-(5-(thiophen-2-yl)-1H-imidazol-2-yl)-4-chlorophenyl)-2-chloro-4-((3S,5R)-3,4,5-trimethylpiperazin-1-yl)benzamide] are 0.16 nM, 0.21 nM and 12 nM.
Take `Cc1cc(N2C[C@@H](C)O[C@@H](C)C2)ccc1C(=O)Nc1cnc(Cl)c(-c2nc3ccccc3[nH]2)c1` [Example 83, N-(5-(1H-benzo[d]imidazol-2-yl)-6-chloropyridin-3-yl)-2-methyl-4-((2S,6R)-2,6-dimethylmorpholino)benzamide]: the IC50 in test [1] (Mus musculus, C3H 10T1/2, 24 h) came out at 6.3 nM; in test [2] (setting [4]), 9.2 nM; in test [3] (setting [4]), 43 nM.
The like results for `Cc1nc(N2C[C@@H](C)O[C@@H](C)C2)ccc1C(=O)Nc1cnc(Cl)c(-c2nc3ccccc3[nH]2)c1` [Example 84, N-(5-(1H-benzo[d]imidazol-2-yl)-6-chloropyridin-3-yl)-2-methyl-6-((2S,6R)-2,6-dimethylmorpholino)nicotinamide] were, in that order, 10 nM, 7.1 nM and 44 nM.
For the compound `Cc1cc(N2C[C@@H](C)O[C@@H](C)C2)ncc1C(=O)Nc1cnc(Cl)c(-c2nc3ccccc3[nH]2)c1` [Example 85, N-(5-(1H-benzo[d]imidazol-2-yl)-6-chloropyridin-3-yl)-4-methyl-6-((2S,6R)-2,6-dimethylmorpholino)nicotinamide], the IC50 was 7.1 nM in test [1] (Mus musculus, C3H 10T1/2, 24 h); 5.6 nM in test [2] (setting [4]); 49 nM in test [3] (setting [4]).
On the same counts, the results for `C[C@@H]1CN(c2ccc(C(=O)Nc3cnc(Cl)c(-c4nc5ccccc5[nH]4)c3)cn2)C[C@H](C)N1C` [Example 86, N-(5-(1H-benzo[d]imidazol-2-yl)-6-chloropyridin-3-yl)-6-((3S,5R)-3,4,5-trimethylpiperazin-1-yl)nicotinamide] are 0.94 nM, 1.7 nM and 40 nM.
Regarding `Cc1cc(N2C[C@@H](C)N(C)[C@@H](C)C2)ccc1C(=O)Nc1cnc(Cl)c(-c2nc3ccccc3[nH]2)c1` [Example 87], the results for the IC50 in test [1] (24 hours), in test [2] and in test [3] were 0.53 nM, 1.7 nM and 21 nM, respectively.
For `Cc1cc(N2C[C@@H](C)N(C)[C@@H](C)C2)ccc1C(=O)Nc1cnc(C)c(-c2nc3ccccc3[nH]2)c1` [Example 88, N-(5-(1H-benzo[d]imidazol-2-yl)-6-methylpyridin-3-yl)-2-methyl-4-((3S,5R)-3,4,5-trimethylpiperazin-1-yl)benzamide], the IC50 in test [1] (Mus musculus, C3H 10T1/2, 24 h) came out at 6.7 nM; in test [2] (setting [4]), 11 nM; in test [3] (setting [4]), 119 nM.
`Cc1cc(C(=O)Nc2cnc(C)c(-c3nc4ccccc4[nH]3)c2)ccc1N1C[C@@H](C)N(C)[C@@H](C)C1` [Example 89, N-(5-(1H-benzo[d]imidazol-2-yl)-6-methylpyridin-3-yl)-3-methyl-4-((3S,5R)-3,4,5-trimethylpiperazin-1-yl)benzamide]: the IC50 amounted to 21 nM in test [1] (Mus musculus, C3H 10T1/2, 24 h); 55 nM in test [2] (setting [4]); 381 nM in test [3] (setting [4]).
The like results for `Cc1ncc(NC(=O)c2ccc(N3C[C@@H](C)N(C)[C@@H](C)C3)nc2)cc1-c1nc2ccccc2[nH]1` [Example 90, N-(5-(1H-benzo[d]imidazol-2-yl)-6-methylpyridin-3-yl)-6-((3S,5R)-3,4,5-trimethylpiperazin-1-yl)nicotinamide] were, in that order, 25 nM, 35 nM and 461 nM.
On the same counts, the results for `Cc1cc(N2C[C@@H](C)O[C@@H](C)C2)ncc1C(=O)Nc1ccc(Cl)c(-c2nc3ccccc3[nH]2)c1` [Example 91, N-(3-(1H-benzo[d]imidazol-2-yl)-4-chlorophenyl)-4-methyl-6-((2S,6R)-2,6-dimethylmorpholino)nicotinamide] are 7.8 nM, 6.8 nM and 52 nM.
The like results for `Cc1cc(N2C[C@@H](C)N(C)[C@@H](C)C2)ccc1C(=O)Nc1ccc(Cl)c(-c2nc3ccccc3[nH]2)c1` [Example 93, N-(3-(1H-benzo[d]imidazol-2-yl)-4-chlorophenyl)-2-methyl-4-((3S,5R)-3,4,5-trimethylpiperazin-1-yl)benzamide] were, in that order, 0.5 nM, 0.69 nM and 32 nM.
For `C[C@@H]1CN(c2ccc(C(=O)Nc3ccc(Cl)c(-c4nc5ccccc5[nH]4)c3)c(Cl)c2)C[C@H](C)N1C` [Example 94, N-(3-(1H-benzo[d]imidazol-2-yl)-4-chlorophenyl)-2-chloro-4-((3S,5R)-3,4,5-trimethylpiperazin-1-yl)benzamide], the IC50 in test [1] (Mus musculus, C3H 10T1/2, 24 h) stood at 0.63 nM; in test [2] (setting [4]), 0.81 nM; in test [3] (setting [4]), 16 nM.
Consider `C[C@@H]1CN(c2ccc(C(=O)Nc3ccc(Cl)c(-c4nc5ccccc5[nH]4)c3)c(F)c2)C[C@H](C)N1C` [Example 95, N-(3-(1H-benzo[d]imidazol-2-yl)-4-chlorophenyl)-2-fluoro-4-((3S,5R)-3,4,5-trimethylpiperazin-1-yl)benzamide], for which the IC50 in test [1] (Mus musculus, C3H 10T1/2, 24 h) was determined as 3.3 nM; in test [2] (setting [4]), 13 nM; in test [3] (setting [4]), 111 nM.
The like results for `C[C@@H]1CN(c2ccc(C(=O)Nc3ccc(Cl)c(-c4nc5ccc(Cl)cc5[nH]4)c3)c(Cl)c2)C[C@H](C)N1C` [Example 96, N-(3-(6-chloro-1H-benzo[d]imidazol-2-yl)-4-chlorophenyl)-2-chloro-4-((3S,5R)-3,4,5-trimethylpiperazin-1-yl)benzamide] were, in that order, 3.3 nM, 5 nM and 106 nM.
The like results for `Cc1cc(N2C[C@@H](C)N(C)[C@@H](C)C2)ccc1C(=O)Nc1ccc(Cl)c(-c2nc3ccc(Cl)cc3[nH]2)c1` [Example 97, N-(3-(6-chloro-1H-benzo[d]imidazol-2-yl)-4-chlorophenyl)-2-methyl-4-((3S,5R)-3,4,5-trimethylpiperazin-1-yl)benzamide] were, in that order, 1.7 nM, 0.59 nM and 32 nM.
On the same counts, the results for `Cc1cc(N2C[C@@H](C)N(C)[C@@H](C)C2)ccc1C(=O)Nc1ccc(Cl)c(-c2nc3ccc(F)cc3[nH]2)c1` [Example 98, N-(3-(6-fluoro-1H-benzo[d]imidazol-2-yl)-4-chlorophenyl)-2-methyl-4-((3S,5R)-3,4,5-trimethylpiperazin-1-yl)benzamide] are 0.96 nM, 1.4 nM and 24 nM.
For `C[C@@H]1CN(c2ccc(C(=O)Nc3ccc(Cl)c(-c4nc5ccc(F)cc5[nH]4)c3)c(Cl)c2)C[C@H](C)N1C` [Example 99, N-(3-(6-fluoro-1H-benzo[d]imidazol-2-yl)-4-chlorophenyl)-2-chloro-4-((3S,5R)-3,4,5-trimethylpiperazin-1-yl)benzamide], the IC50 in test [1] (Mus musculus, C3H 10T1/2, 24 h) worked out at 1.6 nM; in test [2], 2.6 nM; in test [3] (setting [4]), 81 nM.
As for `CCN1[C@H](C)CN(c2ccc(C(=O)Nc3ccc(Cl)c(-c4nc5ccccc5[nH]4)c3)c(C)c2)C[C@@H]1C` [Example 100, N-(3-(1H-benzo[d]imidazol-2-yl)-4-chlorophenyl)-2-methyl-4-((3S,5R)-4-ethyl-3,5-dimethylpiperazin-1-yl)benzamide], the IC50 in test [1] (Mus musculus, C3H 10T1/2, 24 h) came out at 0.58 nM; in test [2] (setting [4]), 2.3 nM; in test [3] (setting [4]) it was 33 nM.
